The record followed here is publication PMC7072815, “Nrp1 is Activated by Konjac Ceramide Binding-Induced Structural Rigidification of the a1a2 Domain” (Cells, 2020).

The assay addresses T1, neuropilin 1 (Nrp1) (Mus musculus, UniProt P97333).
T1 construct: a1a2 domain (residues 23−269), His6-tag, pCold-ProS2 vector, E. coli
T1 sequence (P97333 23-269): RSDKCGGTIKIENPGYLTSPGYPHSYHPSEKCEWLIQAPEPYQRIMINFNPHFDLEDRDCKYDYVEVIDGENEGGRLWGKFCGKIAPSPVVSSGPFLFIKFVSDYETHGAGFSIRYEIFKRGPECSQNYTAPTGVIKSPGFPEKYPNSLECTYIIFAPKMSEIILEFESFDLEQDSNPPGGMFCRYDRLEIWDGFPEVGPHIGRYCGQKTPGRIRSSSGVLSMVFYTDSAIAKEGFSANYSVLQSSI
As to the kind of experiment: quantitative fluorescent dot-blot saturation binding to purified a1a2.

d4t,8t-NBD-Ceramide yielded a Kd of 114 ± 5 nM.
